target: T1, human URAT1 (Homo sapiens, UniProt Q96S37); assay: Uric acid transport inhibitory test using human URAT1-expressing cells; type: cell-based; settings: human URAT1-expressing HEK293 cells, 14C-uric acid 50 μM, uptake 5 min, room temperature; read-out: hURAT1 IC50
T1 construct: Human URAT1 full length cDNA was subcloned to expression vector pcDNA3.1; expressed in transfected cells; host or cells: HEK293 cells (pcDNA3.1, geneticin-selected)
T1 sequence (Q96S37 1-553): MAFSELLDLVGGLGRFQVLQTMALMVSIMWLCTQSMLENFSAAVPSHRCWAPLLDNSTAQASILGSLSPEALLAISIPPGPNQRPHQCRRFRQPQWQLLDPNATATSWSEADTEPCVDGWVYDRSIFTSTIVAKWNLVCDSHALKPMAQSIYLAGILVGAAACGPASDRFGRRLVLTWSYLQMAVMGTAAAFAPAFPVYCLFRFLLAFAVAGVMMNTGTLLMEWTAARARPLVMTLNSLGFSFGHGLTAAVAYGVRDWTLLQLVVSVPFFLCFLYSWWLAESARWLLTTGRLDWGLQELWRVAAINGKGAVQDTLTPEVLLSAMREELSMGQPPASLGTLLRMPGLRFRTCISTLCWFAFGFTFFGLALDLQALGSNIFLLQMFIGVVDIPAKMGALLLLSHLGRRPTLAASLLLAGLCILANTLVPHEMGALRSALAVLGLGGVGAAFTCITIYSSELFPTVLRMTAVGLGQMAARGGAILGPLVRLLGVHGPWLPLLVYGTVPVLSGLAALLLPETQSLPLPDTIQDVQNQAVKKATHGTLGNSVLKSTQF
Excerpt: Experimental Example 1 Uric Acid Transport Inhibitory Test Using Human URAT1-Expressing Cells
Human URAT1 full length cDNA was subcloned to expression vector pcDNA3.1 and human URAT1 gene was transfected into human embryonic kidney derived cell line (HEK293 cells) by liposome method using Lipofectamine2000. Simultaneously, HEK293 cells transfected with expression vector pcDNA3.1 alone (hereinafter mock cells) were also produced. HEK293 cells expressing human URAT1 gene or mock cells were selected with geneticin resistance as an index. The functional expression of human URAT1 gene was confirmed by a method similar to the following method, using ^14C-uric acid transport into the cells as an index.
Human URAT1-expressing HEK293 cells or mock cells were cultured in Dulbecco's modified Eagle's MEM medium (high glucose) containing 10% fetal bovine serum, 0.5 mg/mL geneticin sulfate, 100 units/mL penicillin and 100 μg/mL streptomycin under the conditions of 37° C. and 5% CO2 in an incubator. The cells were plated in a 96 well plate (poly-D-Lysine coated) at 1×10^5 cells/well and the following uric acid transport inhibitory test was performed 24 hr later. This test was performed at room temperature.
After the medium was removed by aspiration from each well, the cells were washed once with Hank's Balanced Salt Solution (HBSS) and preincubated with HBSS (100 μL/well) for 5 min. HBSS was aspirated and an assay buffer (wherein NaCl in the above-mentioned HBSS had been substituted with Na-gluconate) containing various concentrations of the Example compound and a radioactive ligand (14C-uric acid; final concentration 50 μM) was added to each well at 50 μL/well and an uptake reaction was carried out for 5 min. After the reaction, the cells were washed twice with ice-cold HBSS (150 μL/well), and Microscinti™ 20 (PerkinElmer) was added at 50 μL/well. The cells were lysed by stirring and the radioactivity of each well was measured by a liquid scintillation counter (TOP COUNT, Packard).
The uric acid transport rate (%) of the Example compound at each concentration was calculated relative to the radioactivity (difference in radioactivity between human URAT1-expressing HEK293 cells and mock cells without addition of Example compound (DMSO addition)) showing URAT1 specific uric acid transport as 100%, and the concentration (IC50) of the Example compound necessary for inhibiting the uric acid transport rate by 50% was determined. In Table 24-Table 27, “+++” means IC50 value of less than 300 nM, “++” means IC50 value of 300 nM to less than 3000 nM, and “+” means IC50 value of not less than 3000 nM.

| IC50 | SMILES |
| --- | --- |
| < 0.3 µM | CC(C)C1Oc2c(Cl)cccc2N(CCC(=O)O)C1=O (stereo not shown) [Example 100, 3-(8-chloro-2-isopropyl-3-oxo-2,3-dihydrobenzo[1,4]oxazin-4-yl)propionic acid] |
| < 0.3 µM | Cc1cccc2c1OC(C(C)C)C(=O)N2CCC(=O)O (stereo not shown) [Example 44, 3-(2-isopropyl-8-methyl-3-oxo-2,3-dihydrobenzo[1,4]oxazin-4-yl)propionic acid] |
| 0.3 to 3 µM | Cc1ccc2c(c1)N(CCC(=O)O)C(=O)C(C(C)C)O2 (stereo not shown) [Example 58, 3-(2-isopropyl-6-methyl-3-oxo-2,3-dihydrobenzo[1,4]oxazin-4-yl)propionic acid] |
| ≥ 3 µM | CC(C)c1cccc2c1OCC(=O)N2CC(=O)O [Example 10, (8-isopropyl-3-oxo-2,3-dihydrobenzo[1,4]oxazin-4-yl)acetic acid] |
| ≥ 3 µM | CCC1Oc2c(C(C)C)cccc2N(CC(=O)O)C1=O (stereo not shown) [Example 39, (2-ethyl-8-isopropyl-3-oxo-2,3-dihydrobenzo[1,4]oxazin-4-yl)acetic acid] |
| 0.3 to 3 µM | CC(C)c1cccc2c1OC(C(C)C)C(=O)N2CC(C)(C)C(=O)O (stereo not shown) [Example 42, 3-(2,8-diisopropyl-3-oxo-2,3-dihydrobenzo[1,4]oxazin-4-yl)-2,2-dimethylpropionic acid] |
| 0.3 to 3 µM | CC(C)c1cccc2c1O[C@H](C(C)C)C(=S)N2CC(=O)O [Example 8, ((R)-2,8-diisopropyl-3-thioxo-2,3-dihydrobenzo[1,4]oxazin-4-yl)acetic acid] |
| ≥ 3 µM | CC(C)C1Oc2c(cccc2C(C)(C)C)N(CCC(=O)O)C1=O (stereo not shown) [Example 46, 3-(8-tert-butyl-2-isopropyl-3-oxo-2,3-dihydrobenzo[1,4]oxazin-4-yl)propionic acid] |
| ≥ 3 µM | CC(C)C1Oc2c(C3CCCCC3)cccc2N(CCC(=O)O)C1=O (stereo not shown) [Example 50, 3-(8-cyclohexyl-2-isopropyl-3-oxo-2,3-dihydrobenzo[1,4]oxazin-4-yl)propionic acid] |
| ≥ 3 µM | CC(C)c1cccc2c1OC(C(C)C)CN2C(=O)CCC(=O)O (stereo not shown) [Example 21, 4-(2,8-diisopropyl-2,3-dihydrobenzo[1,4]oxazin-4-yl)-4-oxobutyric acid] |
| ≥ 3 µM | CC(C)c1cccc2c1OC(C(C)C)C(=O)N2CCCC(=O)O (stereo not shown) [Example 18, 4-(2,8-diisopropyl-3-oxo-2,3-dihydrobenzo[1,4]oxazin-4-yl)butyric acid] |
| < 0.3 µM | Cc1cc(C)c2c(c1)N(CCC(=O)O)C(=O)C(C(C)C)O2 (stereo not shown) [Example 61, 3-(2-isopropyl-6,8-dimethyl-3-oxo-2,3-dihydrobenzo[1,4]oxazin-4-yl)propionic acid] |
| ≥ 3 µM | CC(C)c1cccc2c1OC(C)(C)C(=O)N2CCC(=O)O [Example 33, 3-(8-isopropyl-2,2-dimethyl-3-oxo-2,3-dihydrobenzo[1,4]oxazin-4-yl)propionic acid] |

Second part, the compound before the results:

| SMILES | IC50 |
| --- | --- |
| O=C(O)CCC(=O)N1CCOc2ccccc21 [Example 23, 4-(2,3-dihydrobenzo[1,4]oxazin-4-yl)-4-oxobutyric acid] | ≥ 3 µM |
| Cc1cc(C)c2c(c1)N(CCC(=O)O)C(=O)C(Cc1ccccc1)O2 (stereo not shown) [Example 92, 3-(2-benzyl-6,8-dimethyl-3-oxo-2,3-dihydrobenzo[1,4]oxazin-4-yl)propionic acid] | ≥ 3 µM |
| O=C(O)/C=C/C(=O)N1CC(c2ccccc2)Oc2cc(Cl)ccc21 (stereo not shown) [Example 70, (E)-4-(7-chloro-2-phenyl-2,3-dihydrobenzo[1,4]oxazin-4-yl)-4-oxo-2-butenoic acid] | ≥ 3 µM |
| CC(C)C1Oc2c(Cl)cc(Cl)cc2N(CCC(=O)O)C1=O (stereo not shown) [Example 80, 3-(6,8-dichloro-2-isopropyl-3-oxo-2,3-dihydrobenzo[1,4]oxazin-4-yl)propionic acid] | < 0.3 µM |
| O=C(O)CN1C(=O)CSc2ccccc21 [Example 4, (3-oxo-2,3-dihydrobenzo[1,4]thiazin-4-yl)acetic acid] | ≥ 3 µM |
| Cc1ccc2c(c1)OC(c1ccccc1)CN2C(=O)/C=C/C(=O)O (stereo not shown) [Example 57, (E)-4-(7-methyl-2-phenyl-2,3-dihydrobenzo[1,4]oxazin-4-yl)-4-oxo-2-butenoic acid] | ≥ 3 µM |
| Cc1ccc2c(c1)OC(c1ccccc1)C(=O)N2CCC(=O)O (stereo not shown) [Example 48, 3-(7-methyl-3-oxo-2-phenyl-2,3-dihydrobenzo[1,4]oxazin-4-yl)propionic acid] | ≥ 3 µM |
| CC(C)C1Oc2ccc([N+](=O)[O-])cc2N(CCC(=O)O)C1=O (stereo not shown) [Example 96, 3-(2-isopropyl-6-nitro-3-oxo-2,3-dihydrobenzo[1,4]oxazin-4-yl)propionic acid] | 0.3 to 3 µM |
| O=C(O)CCN1C(=O)C(c2ccccc2)Oc2ccc(Cl)cc21 (stereo not shown) [Example 77, 3-(6-chloro-3-oxo-2-phenyl-2,3-dihydrobenzo[1,4]oxazin-4-yl)propionic acid] | ≥ 3 µM |
| CC1(C)Oc2ccccc2N(CC(=O)O)C1=O [Example 5, (2,2-dimethyl-3-oxo-2,3-dihydrobenzo[1,4]oxazin-4-yl)acetic acid] | ≥ 3 µM |
| CC(C)C1Oc2c(cc(C(F)(F)F)cc2C(F)(F)F)N(CCC(=O)O)C1=O (stereo not shown) [Example 103, 3-[2-isopropyl-3-oxo-6,8-bis(trifluoromethyl)-2,3-dihydrobenzo[1,4]oxazin-4-yl]propionic acid] | 0.3 to 3 µM |
| CC(C)C1CN(C(=O)/C=C/C(=O)O)c2cccc(C(C)(C)C)c2O1 (stereo not shown) [Example 52, (E)-4-(8-tert-butyl-2-isopropyl-2,3-dihydrobenzo[1,4]oxazin-4-yl)-4-oxo-2-butenoic acid] | ≥ 3 µM |
| CC(C)C1Oc2ccc(C(F)(F)F)cc2N(CCC(=O)O)C1=O (stereo not shown) [Example 97, 3-(2-isopropyl-3-oxo-6-trifluoromethyl-2,3-dihydrobenzo[1,4]oxazin-4-yl)propionic acid] | 0.3 to 3 µM |
| CC(C)C1Sc2ccccc2N(CCC(=O)O)C1=O (stereo not shown) [Example 22, 3-(2-isopropyl-3-oxo-2,3-dihydrobenzo[1,4]thiazin-4-yl)propionic acid] | 0.3 to 3 µM |
| CC(C)C1CN(C(=O)/C=C/C(=O)O)c2cccc(Br)c2O1 (stereo not shown) [Example 78, (E)-4-(8-bromo-2-isopropyl-2,3-dihydrobenzo[1,4]oxazin-4-yl)-4-oxo-2-butenoic acid] | ≥ 3 µM |
| CCc1cccc2c1OC(c1ccccc1)C(=O)N2CCC(=O)O (stereo not shown) [Example 59, 3-(8-ethyl-3-oxo-2-phenyl-2,3-dihydrobenzo[1,4]oxazin-4-yl)propionic acid] | 0.3 to 3 µM |
| CC(C)C1Sc2ccccc2N(CC(=O)O)C1=O (stereo not shown) [Example 30, (2-isopropyl-3-oxo-2,3-dihydrobenzo[1,4]thiazin-4-yl)acetic acid] | ≥ 3 µM |
| O=C(O)CCN1C(=O)C(c2ccccc2)Oc2cc(Cl)ccc21 (stereo not shown) [Example 76, 3-(7-chloro-3-oxo-2-phenyl-2,3-dihydrobenzo[1,4]oxazin-4-yl)propionic acid] | ≥ 3 µM |
| O=C(O)CCN1C(=O)C(c2ccccc2)Oc2c(Br)cccc21 (stereo not shown) [Example 66, 3-(8-bromo-3-oxo-2-phenyl-2,3-dihydrobenzo[1,4]oxazin-4-yl)propionic acid] | 0.3 to 3 µM |
| CC(C)C1CN(C(=O)/C=C/C(=O)O)c2ccc(Cl)cc2O1 (stereo not shown) [Example 68, (E)-4-(7-chloro-2-isopropyl-2,3-dihydrobenzo[1,4]oxazin-4-yl)-4-oxo-2-butenoic acid] | 0.3 to 3 µM |
| O=C(O)/C=C\C(=O)N1CCOc2ccccc21 [Example 25, (Z)-4-(2,3-dihydrobenzo[1,4]oxazin-4-yl)-4-oxo-2-butenoic acid] | ≥ 3 µM |

— patent US20070197512A1, “Carboxylic Acid Compounds and Use Thereof” (Japan Tobacco Inc., priority 2006, published 2007)
